The source of these data is patent publication US7381824B2 (Agouron Pharmaceuticals, Inc., priority 2003, dated 2008).

The subject of assay [1] is human umbilical vein endothelial cells (HUVEC). Briefly: HUVEC+VEGF proliferation assay. It is filed as cell-based. The conditions noted are these: Homo sapiens; VEGF-stimulated HUVEC proliferation, MTT, 72 hours. The protocol:
HUVEC+VEGF Proliferation Assay
This assay determines the ability of a test compound to inhibit the growth factor-stimulated proliferation of human umbilical vein endothelial cells (“HUVEC”). HUVEC cells (passage 3-4, Clonetics, Corp.) were thawed into EGM2 culture medium (Clonetics Corp) in T75 flasks. Fresh EGM2 medium was added to the flasks 24 hours later. Four or five days later, cells were exposed to another culture medium (F12K medium supplemented with 10% fetal bovine serum (FBS), […] endothelial cell growth supplement (ECGS), and 0.1 mg/mL heparin). Exponentially-growing HUVEC cells were used in experiments thereafter. Ten to twelve thousand HUVEC cells were plated in 96-well dishes in […] of rich, culture medium (described above). The cells were allowed to attach for 24 hours in this medium. The medium was then removed by aspiration and […] of starvation media (F12K+1% FBS) was added to each well. After 24 hours, […] of test agent dissolved in 1% DMSO in starvation medium or this vehicle alone was added into each treatment well; the final DMSO concentration was 0.1%. One hour later, […] of VEGF (30 ng/mL) in starvation media was added to all wells except those containing untreated controls; the final VEGF concentration was 6 ng/mL. Cellular proliferation was quantified 72 hours later by MTT dye reduction, at which time cells were exposed for 4 hours MTT (Promega Corp.). Dye reduction was stopped by addition of a stop solution (Promega Corp.) and absorbance at 595 nm was determined on a 96-well spectrophotometer plate reader.

The target in assay [2] is T1, human vascular endothelial growth factor receptor 2 (VEGF-R2) (Homo sapiens, UniProt P35968, DEL940-989/E990V).
T1 construct: VEGF-R2D50 contains residues 806-939 and 990-1171; made in house; host or cells: baculovirus/insect cell system
T1 sequence (P35968 with tags, fused parts or gaps DEL940-989/E990V limits assumed): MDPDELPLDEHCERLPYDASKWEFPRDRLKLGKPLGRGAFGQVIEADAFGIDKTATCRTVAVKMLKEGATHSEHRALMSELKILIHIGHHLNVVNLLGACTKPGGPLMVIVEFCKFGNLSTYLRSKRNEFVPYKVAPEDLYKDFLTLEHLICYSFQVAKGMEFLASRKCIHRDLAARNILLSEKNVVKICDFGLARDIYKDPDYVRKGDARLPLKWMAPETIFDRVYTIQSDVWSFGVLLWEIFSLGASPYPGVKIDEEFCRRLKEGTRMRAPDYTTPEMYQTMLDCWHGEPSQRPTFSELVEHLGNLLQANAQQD
Description: VEGF-R2 coupled spectrophotometric assay (FLVK, unphosphorylated VEGF-R2D50). It is filed as biochemical. The conditions noted are these: unphosphorylated VEGF-R2D50 (FLVK). From the text:
This construct determines the ability of a test compound to inhibit tyrosine kinase activity. A construct (VEGF-R2D50) of the cytosolic domain of human vascular endothelial growth factor receptor 2 (VEGF-R2) lacking the 50 central residues of the 68 residues of the kinase insert domain was expressed in a baculovirus/insect cell system. Of the 1356 residues of full-length VEGF-R2, VEGF-R2D50 contains residues 806-939 and 990-1171, and also one point mutation (E990V) within the kinase insert domain relative to wild-type VEGF-R2. Autophosphorylation of the purified construct was performed by incubation of the enzyme at a concentration of […] in the presence of 3 mM ATP and 40 mM MgCl2 in 100 mM HEPES, pH 7.5, containing 5% glycerol and 5 mM DTT, at 4° C. for 2 h. […] See Parast et al., Biochemistry, 37, 16788-16801 (1998).
VEGF-R2 Assay: Coupled Spectrophotometric (FLVK-P) Assay
The production of ADP from ATP that accompanies phosphoryl transfer was coupled to oxidation of NADH using phosphoenolpyruvate (PEP) and a system having pyruvate kinase (PK) and lactic dehydrogenase (LDH). The oxidation of NADH was monitored by following the decrease of absorbance at 340 nm (e340=6.22 cm^−1 mM^−1) using a Beckman DU 650 spectrophotometer. Assay conditions for phosphorylated VEGF-R2D50 (indicated as FLVK-P in the tables below) were the following: 1 mM PEP; […] NADH; 50 units of LDH/mL; 20 units of PK/mL; 5 mM DTT; 5.1 mM poly(E4Y1); 1 mM ATP; and 25 mM MgCl2 in 200 mM HEPES, pH 7.5. Assay conditions for unphosphorylated VEGF-R2D50 (indicated as FLVK in the tables) were the following: 1 mM PEP; […] NADH; 50 units of LDH/mL; 20 units of PK/mL; 5 mM DTT; 20 mM poly(E4Y1); 3 mM ATP; and 60 mM MgCl2 and 2 mM MnCl2 in 200 mM HEPES, pH 7.5. Assays were initiated with 5 to 40 nM of enzyme. K1 values were determined by measuring enzyme activity in the presence of varying concentrations of test compounds. The percent inhibition at 50 nM (% inhibition @ 50 nM) was determined by linear least-squares regression analysis of absorbance as a function of time. The binding inhibitions were fitted to equation as described by Morrison. The data were analyzed using Enzyme Kinetic and Kaleidagraph software.

pKi: −log10 of the molar value.

On to `CNC(=O)c1c(C)oc2cc(Oc3ccnc4cc(I)ccc34)ccc12` [Example 6, 6-[(7-iodoquinolin-4-yl)oxy]-N,2-dimethyl-1-benzofuran-3-carboxamide], for which, in assay [1], the half-maximal inhibitory concentration (IC50) fell in the range of 1 to 10 nM. The pKi in assay [2] was 8.00 to 9.00.
The like results for `CNC(=O)c1c(C)oc2cc(Oc3ccnc4cc(-c5cccnc5)ccc34)ccc12` [Example 8, N-2-dimethyl-6-[(7-pyridin-3-ylquinolin-4-yl)oxy]-1-benzofuran-3-carboxamide] were, in that order, less than 1 nM and more than 9.00.
Turning to `CNC(=O)c1c(C)oc2cc(Oc3ccnc4cc(-c5ccccn5)ccc34)ccc12` [Example 9, N-2-dimethyl-6-[(7-pyridin-2-ylquinolin-4-yl)oxy]-1-benzofuran-3-carboxamide], in assay [1], the IC50 is 1 to 10 nM. Further, the negative-log Ki (pKi) in assay [2] is more than 9.00.
As to `CNC(=O)c1c(C)sc2cc(Oc3ccnc4cc(-c5ccncc5)ccc34)ccc12` [Example 10, N-2-dimethyl-6-[(7-pyridin-4-ylquinolin-4-yl]oxy]-1-benzothiophene-3-carboxamide], the IC50 in assay [1] fell in the range of 1 to 10 nM. In addition, the pKi in assay [2] was 8.00 to 9.00.
For `CNC(=O)n1c(C)cc2cc(Nc3ccnc4cc(-c5ccncc5)ccc34)ccc21` [Example 11, N-2-dimethyl-5-[(7-pyridin-4-ylquinolin-4-yl]amino]-1H-indole-1-carboxamide], the half-maximal inhibitory concentration (IC50) in assay [1] was less than 1 nM. In addition, the negative logarithm of the Ki (pKi) in assay [2] is 8.00 to 9.00.
For the compound `CNC(=O)c1c(C)oc2cc(Oc3ccnc4cc(O)ccc34)ccc12` [Example 28, 6-[(7-hydroxyquinoline-4-yl)oxy]-N,2-dimethyl-1-benzofuran-3-carboxamide], in assay [1], the IC50 lay in the range of 1 to 10 nM.
Regarding `CNC(=O)n1c(C)cc2cc(Nc3ccnc4cc(-c5ccccn5)ccc34)ccc21` [Example 32], the concentration for half-maximal inhibition (IC50) in assay [1] was 1 to 10 nM.
Regarding `CNC(=O)c1c(C)oc2cc(Oc3ccnc4cc(OCCN5CCCC5)ccc34)ccc12` [Example 35, N,2-dimethyl-6-{[7-(2-pyrrolidin-1-ylethoxy)quinolin-4-yl]oxy}-1-benzofuran-3-carboxamide], the concentration for half-maximal inhibition (IC50) in assay [1] is less than 1 nM.
Take `CCCCNC(=O)c1c(C)oc2cc(Oc3ccnc4cc(OC)ccc34)ccc12` [Example 39, N-butyl-6-[(7-methoxyquinolin-4-yl)oxy]-2-methyl-1-benzofuran-3-carboxamide]: the 50% inhibitory concentration (IC50) in assay [1] was less than 1 nM.
Regarding `COc1ccc2c(Oc3ccc4c(C(=O)Nc5ccccn5)c(C)oc4c3)ccnc2c1` [Example 40, 6-[(7-methoxyquinolin-4-yl)oxy]-2-methyl-N-pyridin-2-yl-1-benzofuran-3-carboxamide], the IC50 in assay [1] is less than 1 nM.
For the compound `CCCCNC(=O)c1c(C)oc2cc(Oc3ccnc4cc(O)ccc34)ccc12` [Example 41, N-butyl-6-[(7-hydroxyquinolin-4-yl)oxy]-2-methyl-1-benzofuran-3-carboxamide], in assay [1], the half-maximal inhibitory concentration (IC50) lay in the range of 1 to 10 nM.
Same read-out and setting: in the case of `C=CCOc1ccc2c(Oc3ccc4c(C(=O)NC)c(C)oc4c3)ccnc2c1` [Example 42, 6-{[7-(allyloxy)quinolin-4-yl]oxy}-N,2-dimethyl-1-benzofuran-3-carboxamide] it was less than 1 nM; in that of `COc1ccc2c(Oc3ccc4c(C(=O)NC(C)C)c(C)oc4c3)ccnc2c1` [Example 43, N-isopropyl-6-[(7-methoxyquinolin-4-yl)oxy]-2-methyl-1-benzofuran-3-carboxamide], 1 to 10 nM; in that of `COc1ccc2c(Oc3ccc4c(C(=O)NCCCN5CCOCC5)c(C)sc4c3)ccnc2c1` [Example 62, 6-[(7-methoxyquinolin-4-yl)oxy]-2-methyl-N-(3-morpholin-4-ylpropyl)-1-benzothiophene-3-carboxamide], more than 10 nM.
Turning to `COc1ccc2c(Oc3ccc4c(C(=O)NC5CC5)c(C)oc4c3)ccnc2c1` [Example 63, N-cyclopropyl-6-[(7-methoxyquinolin-4-yl)oxy]-2-methyl-1-benzofuran-3-carboxamide], the concentration for half-maximal inhibition (IC50) in assay [1] was less than 1 nM.
On to `COc1ccc2c(Oc3ccc4c(C(=O)NCCCN5CCOCC5)c(C)oc4c3)ccnc2c1` [Example 64, 6-[(7-methoxyquinolin-4-yl)oxy]-2-methyl-N-(3-morpholin-4-ylpropyl)-1-benzofuran-3-carboxamide], for which the half-maximal inhibitory concentration (IC50) in assay [1] was in the range of 1 to 10 nM.
For `CCN(CC)CCOc1ccc2c(Oc3ccc4c(C(=O)NC5CC5)c(C)oc4c3)ccnc2c1` [Example 91, N-cyclopropyl-2-methyl-6-({7-[2-(diethylamino)ethoxy]quinolin-4-yl}oxy)-1-benzofuran-3-carboxamide], in assay [2], the pKi was more than 9.00.
As for `Cc1oc2cc(Oc3ccnc4cc(OCCO)ccc34)ccc2c1C(=O)NC1CC1` [Example 92, N-cyclopropyl-2-methyl-6-({7-[2-hydroxy-ethoxy]quinolin-4-yl}oxy)-1-benzofuran-3-carboxamide], in assay [2], the negative logarithm of the Ki (pKi) is more than 9.00.
`Cc1oc2cc(Oc3ccnc4cc(OCCBr)ccc34)ccc2c1C(=O)NC1CC1` [Example 93, 6-{[7-(2-bromoethoxy)quinolin-4-yl]oxy}-N-cyclopropyl-2-methyl-1-benzofuran-3-carboxamide] gave a negative logarithm of the Ki (pKi) in assay [2] of more than 9.00.
Regarding `CCN1CCN(CCOc2ccc3c(Oc4ccc5c(C(=O)NC6CC6)c(C)oc5c4)ccnc3c2)CC1` [Example 94, N-cyclopropyl-2-methyl-6-{7-[2-(4-ethyl-piperazin-1-yl)-ethoxy]quinolin-4-yloxy}-1-benzofuran-3-carboxamide], the pKi in assay [2] is more than 9.00.
On the same count and under the same terms, the figure for `Cc1oc2cc(Oc3ccnc4cc(OCCNC(C)C)ccc34)ccc2c1C(=O)NC1CC1` [Example 95, N-cyclopropyl-6-({7-[2-(isopropylamino)ethoxy]quinolin-4-yl}oxy)-2-methyl-1-benzofuran-3-carboxamide] is more than 9.00; for `Cc1oc2cc(Oc3ccnc4cc(OCCNC5CC5)ccc34)ccc2c1C(=O)NC1CC1` [Example 96, N-cyclopropyl-6-({7-[2-(cyclopropylamino)ethoxy]quinolin-4-yl}oxy)-2-methyl-1-benzofuran-3-carboxamide] it is more than 9.00.
In turn, `COCC(C)NCCOc1ccc2c(Oc3ccc4c(C(=O)NC5CC5)c(C)oc4c3)ccnc2c1` (centres unmarked) [Example 97, N-cyclopropyl-6-[(7-{2-[(2-methoxy-1-methylethyl)amino]ethoxy}quinolin-4-yl)oxy]-2-methyl-1-benzofuran-3-carboxamide] had a negative logarithm of the Ki (pKi) in assay [2] of more than 9.00.
`Cc1oc2cc(Oc3ccnc4cc(OCCNC(C)(C)C)ccc34)ccc2c1C(=O)NC1CC1` [Example 98] had a negative logarithm of the Ki (pKi) in assay [2] of more than 9.00.
In the case of `Cc1oc2cc(Oc3ccnc4cc(OCCNC5CCC5)ccc34)ccc2c1C(=O)NC1CC1` [Example 100], the half-inhibitory concentration (IC50) in assay [1] fell in the range of 1 to 10 nM.
As for `COc1ccc2c(Oc3ccc4c(C(=O)Nc5cc(C)cc(C)n5)c(C)oc4c3)ccnc2c1` [Example 108, N-(4,6-dimethylpyridin-2-yl)-6-[(7-methoxyquinolin-4-yl)oxy]-2-methyl-1-benzofuran-3-carboxamide], in assay [1], the IC50 lay in the range of 1 to 10 nM.
On to `Cc1cc(C)nc(NC(=O)c2c(C)oc3cc(Oc4ccnc5cc(O)ccc45)ccc23)c1` [Example 109, N-(4,6-dimethylpyridin-2-yl)-6-[(7-hydroxyquinolin-4-yl)oxy]-2-methyl-1-benzofuran-3-carboxamide], for which the half-inhibitory concentration (IC50) in assay [1] was more than 10 nM.
